From ChEMBL document CHEMBL1138611, “Oxadiazolylindazole sodium channel modulators are neuroprotective toward hippocampal neurones” (J Med Chem, 2009)

Assays:
Cytochrome P450 2D6 = Cytochrome P450 2D6 (Homo sapiens, UniProt P10635); experiment: Inhibition of human recombinant CYP2D6; assay type: ADME
Cytochrome P450 1A2 = target: T1, Cytochrome P450 1A2 (Homo sapiens, UniProt P05177); experiment: Inhibition of human recombinant CYP1A2; assay type: ADME
T1 sequence (P05177 whole entry): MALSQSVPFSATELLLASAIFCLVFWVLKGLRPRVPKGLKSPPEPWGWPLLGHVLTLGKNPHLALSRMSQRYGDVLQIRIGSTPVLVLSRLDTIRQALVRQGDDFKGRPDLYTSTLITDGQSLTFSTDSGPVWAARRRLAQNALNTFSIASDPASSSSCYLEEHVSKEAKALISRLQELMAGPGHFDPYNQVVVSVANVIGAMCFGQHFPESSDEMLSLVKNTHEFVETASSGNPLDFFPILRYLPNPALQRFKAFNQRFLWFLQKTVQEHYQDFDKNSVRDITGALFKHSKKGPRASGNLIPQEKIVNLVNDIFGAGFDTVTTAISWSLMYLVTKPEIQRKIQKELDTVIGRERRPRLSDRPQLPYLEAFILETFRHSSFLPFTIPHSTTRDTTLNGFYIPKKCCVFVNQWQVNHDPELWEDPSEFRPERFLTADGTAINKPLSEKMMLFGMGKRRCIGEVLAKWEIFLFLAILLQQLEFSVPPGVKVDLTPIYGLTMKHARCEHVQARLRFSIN

[1] = Inhibition of voltage-gated sodium channel in Wistar rat forebrain synaptosomes assessed as inhibition of [14C]guanidium ion flux; assay type: subcellular, Brain
Hippocampus = experiment: Neuroprotective activity in Wistar rat hippocampal slices assessed as ATP concentration at 50 uM relative to tetrodotoxin; assay type: functional
[2] = Displacement of [3H]BW202W92 from voltage-gated sodium channel in Wistar rat forebrain synaptosomes by liquid scintillation counting; assay type: subcellular, Brain

Sequence of Cytochrome P450 2D6 (P10635 whole entry): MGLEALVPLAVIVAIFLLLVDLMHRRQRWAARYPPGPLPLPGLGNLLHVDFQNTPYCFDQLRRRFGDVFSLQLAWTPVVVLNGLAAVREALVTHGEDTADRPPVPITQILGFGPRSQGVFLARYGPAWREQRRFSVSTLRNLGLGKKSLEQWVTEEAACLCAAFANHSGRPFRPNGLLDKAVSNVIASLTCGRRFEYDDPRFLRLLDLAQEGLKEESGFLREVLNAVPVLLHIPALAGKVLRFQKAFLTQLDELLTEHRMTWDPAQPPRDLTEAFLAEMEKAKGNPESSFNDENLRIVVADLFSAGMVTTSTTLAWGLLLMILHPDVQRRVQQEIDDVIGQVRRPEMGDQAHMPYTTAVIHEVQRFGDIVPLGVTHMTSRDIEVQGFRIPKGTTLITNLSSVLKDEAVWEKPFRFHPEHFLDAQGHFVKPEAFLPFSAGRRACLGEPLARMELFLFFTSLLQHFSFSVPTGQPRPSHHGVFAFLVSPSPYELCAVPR

| Structure (SMILES) | IC50 (Cytochrome P450 2D6) [µM] | IC50 (Cytochrome P450 1A2) [µM] | IC50 [1] [µM] | Activity (Hippocampus) [%] | IC50 [2] [µM] |
| --- | --- | --- | --- | --- | --- |
| CC(C)(C)OC(=O)NCc1noc(-c2n[nH]c3ccccc23)n1 | > 10 | 0.79 | 96 | 0 | – |
| O=S(=O)(NCc1noc(-c2nn(Cc3ccccc3)c3ccccc23)n1)c1ccccc1 | – | – | 5 | 20 | – |
| Cc1ccc(Cn2nc(-c3nc(CN)no3)c3ccccc32)cc1 | – | – | 17 | 34 | – |
| NCc1noc(-c2c3ccccc3nn2Cc2cccc(Cl)c2)n1 | – | – | 24 | 17 | 110 |
| CC(C)(C)OC(=O)NCc1noc(-c2nn(Cc3ccc(-c4cn[nH]c4)cc3)c3ccccc23)n1 | > 10 | – | 16 | 20 | – |
| NCc1noc(-c2nn(Cc3cc(F)cc(F)c3F)c3ccccc23)n1 | – | – | 35 | 59 | – |
| NCc1noc(-c2c3ccccc3nn2CCc2ccccc2)n1 | 4.27 | 0.36 | 19 | 54 | – |
| CC(C)(C)OC(=O)NCc1noc(-c2c3ccccc3nn2Cc2ccccc2)n1 | – | – | 174 | 25 | – |
| NCc1noc(-c2nn(Cc3cccc(OC(F)(F)F)c3)c3ccccc23)n1 | – | – | 26 | 33 | – |
| CC(=O)Nc1ccc(Cn2nc(-c3nc(CN)no3)c3ccccc32)cc1 | – | – | 309 | 10 | – |
| Cc1ccccc1Cn1nc(-c2nc(CN)no2)c2ccccc21 | – | – | 26 | 46 | – |
| CC(C)(C)OC(=O)NCc1noc(-c2nn(Cc3cccc(C(F)(F)F)c3)c3ccccc23)n1 | – | – | 8 | 3 | – |
| O=C(NCc1noc(-c2nn(Cc3ccccc3)c3ccccc23)n1)c1ccccc1 | – | – | 18 | 23 | – |
| CC(=O)Nc1ccc(Cn2nc(-c3nc(CNC(=O)OC(C)(C)C)no3)c3ccccc32)cc1 | 13 | 5.92 | 15 | 47 | – |
| COc1cc(Cn2nc(-c3nc(CNC(=O)OC(C)(C)C)no3)c3ccccc32)cc(OC)c1OC | – | – | 195 | 0 | – |
| Cc1cccc(Cn2nc3ccccc3c2-c2nc(CNC(=O)OC(C)(C)C)no2)c1 | – | – | 151 | 0 | – |
| Cc1nc(-c2ccc(Cn3nc(-c4nc(CNC(=O)OC(C)(C)C)no4)c4ccccc43)cc2)no1 | – | – | 1 | – | – |
| COc1ccc(S(=O)(=O)n2nc(-c3nc(CNC(=O)OC(C)(C)C)no3)c3ccccc32)cc1OC | 20 | – | 2 | 10 | – |
| NCc1noc(-c2nn(Cc3cccc(C(F)(F)F)c3)c3ccccc23)n1 | – | – | 26 | 58 | – |
| CC(C)(C)OC(=O)NCc1noc(-c2nn(Cc3cc(F)cc(F)c3F)c3ccccc23)n1 | – | – | 1 | 0 | – |

| Structure (SMILES) | IC50 (Cytochrome P450 2D6) [µM] | IC50 (Cytochrome P450 1A2) [µM] | IC50 [1] [µM] | Activity (Hippocampus) [%] | IC50 [2] [µM] |
| --- | --- | --- | --- | --- | --- |
| CC(C)(C)OC(=O)NCc1noc(-c2nn(Cc3ccccc3Cl)c3ccccc23)n1 | – | – | > 300 | 9 | – |
| Cc1cccc(Cn2nc(-c3nc(CNC(=O)OC(C)(C)C)no3)c3ccccc32)c1 | 20 | – | 1 | 0 | – |
| COc1cc(Cn2nc(-c3nc(CN)no3)c3ccccc32)cc(OC)c1OC | – | – | 178 | 28 | – |
| CC(C)(C)OC(=O)NCc1noc(-c2c3ccccc3nn2CCc2ccccc2)n1 | – | – | 85 | 0 | – |
| CC(C)(C)OC(=O)NCc1noc(-c2nn(Cc3cccc(OC(F)(F)F)c3)c3ccccc23)n1 | – | – | 0.9 | 0 | – |
| CC(C)(C)OC(=O)NCc1noc(-c2nn(CCc3ccccc3)c3ccccc23)n1 | – | – | 5 | 0 | – |
| COc1ccc(Cn2nc(-c3nc(CN)no3)c3ccccc32)cc1 | – | – | 38 | 35 | – |
| NCc1noc(-c2nn(Cc3ccc4ccccc4c3)c3ccccc23)n1 | – | – | 20 | 11 | – |
| NCc1noc(-c2nn(CCOc3ccccc3)c3ccccc23)n1 | – | – | 30 | 40 | – |
| NCc1noc(-c2nn(Cc3ccc(-c4cn[nH]c4)cc3)c3ccccc23)n1 | – | – | 63 | 26 | – |
| Cc1ccc(Cn2nc(-c3nc(CNC(=O)OC(C)(C)C)no3)c3ccccc32)cc1 | – | – | 2 | 0 | – |
| CC(C)(C)OC(=O)NCc1noc(-c2nn(CCOc3ccccc3)c3ccccc23)n1 | – | – | 6 | 8 | – |
| CC(C)(C)OC(=O)NCc1noc(-c2nn(Cc3ccc4c(c3)OCO4)c3ccccc23)n1 | 3.3 | 4.86 | 1 | 0 | – |
| NCc1noc(-c2nn(Cc3ccc4c(c3)OCO4)c3ccccc23)n1 | – | – | 30 | 44 | – |
| CC(C)(C)OC(=O)NCc1noc(-c2c3ccccc3nn2Cc2cccc(Cl)c2)n1 | – | – | 4 | 0 | – |
| NCc1noc(-c2c3ccccc3nn2Cc2ccc3c(c2)OCO3)n1 | – | – | 34 | 55 | – |
| Cc1cc(C)cc(Cn2nc(-c3nc(CNC(=O)OC(C)(C)C)no3)c3ccccc32)c1 | – | – | 4 | 0 | – |
| COc1ccc(Cn2nc(-c3nc(CNC(=O)OC(C)(C)C)no3)c3ccccc32)cc1 | – | – | 4 | 0 | – |
| Cc1nc(-c2ccc(Cn3nc(-c4nc(CN)no4)c4ccccc43)cc2)no1 | – | – | 58 | – | – |
| COc1ccc(S(=O)(=O)n2nc(-c3nc(CN)no3)c3ccccc32)cc1OC | 2.9 | > 10 | 102 | 2 | – |

| Structure (SMILES) | IC50 (Cytochrome P450 2D6) [µM] | IC50 (Cytochrome P450 1A2) [µM] | IC50 [1] [µM] | Activity (Hippocampus) [%] | IC50 [2] [µM] |
| --- | --- | --- | --- | --- | --- |
| CC(C)(C)OC(=O)NCc1noc(-c2nn(Cc3ccccc3)c3ccccc23)n1 | – | – | 5 | 19 | – |
| CC(C)(C)OC(=O)NCc1noc(-c2nn(Cc3cccc(Cl)c3)c3ccccc23)n1 | – | – | 4 | 12 | – |
| Cc1cc(C)cc(Cn2nc3ccccc3c2-c2nc(CNC(=O)OC(C)(C)C)no2)c1 | – | – | 12 | 0 | – |
| Cc1cccc(Cn2nc3ccccc3c2-c2nc(CN)no2)c1 | – | – | 26 | 37 | – |
| Cc1cc(C)cc(Cn2nc(-c3nc(CN)no3)c3ccccc32)c1 | 3.73 | 0.062 | 15 | 43 | – |
| Cc1cc(C)cc(Cn2nc3ccccc3c2-c2nc(CN)no2)c1 | – | – | 14 | 35 | – |
| Cc1ccccc1Cn1nc(-c2nc(CNC(=O)OC(C)(C)C)no2)c2ccccc21 | – | – | 3 | 0 | – |
| CC(C)(C)OC(=O)NCc1noc(-c2nn(Cc3ccc4ccccc4c3)c3ccccc23)n1 | – | – | 0.4 | 0 | – |
| O=C(NCc1noc(-c2nn(Cc3ccccc3)c3ccccc23)n1)OCc1ccccc1 | – | – | 5 | 12 | – |
| NCc1noc(-c2nn(CCc3ccccc3)c3ccccc23)n1 | 1.32 | 0.034 | 35 | 49 | – |
| NCc1noc(-c2n[nH]c3ccccc23)n1 | 1 | 0.21 | 2190 | 10 | – |
| CC(C)(C)OC(=O)NCc1noc(-c2c3ccccc3nn2Cc2ccc3c(c2)OCO3)n1 | – | – | 3 | 0 | – |
| CC(=O)n1nc(-c2nc(CNC(=O)OC(C)(C)C)no2)c2ccccc21 | > 10 | – | 132 | 4 | – |
| CC(=O)n1nc(-c2nc(CN)no2)c2ccccc21 | > 10 | – | > 300 | 24 | – |
| CC(C)(C)OC(=O)NCc1noc(-c2nn(Cc3ccc(C(N)=O)cc3)c3ccccc23)n1 | > 10 | – | 24 | 29 | – |
| NCc1noc(-c2nn(Cc3ccccc3Cl)c3ccccc23)n1 | – | – | 20 | 43 | – |
| NCc1noc(-c2nn(Cc3ccc(C(N)=O)cc3)c3ccccc23)n1 | 1.3 | – | 195 | 8 | – |
| Cc1cccc(Cn2nc(-c3nc(CN)no3)c3ccccc32)c1 | 3.96 | 0.084 | 28 | 45 | – |
| NCc1noc(-c2nn(Cc3cccc(Cl)c3)c3ccccc23)n1 | – | – | 14 | 50 | – |
